These results are taken from US9656949B2, “Substituted carboxylic acid derivatives as aggrecanase inhibitors for the treatment of osteoarthritis” (MERCK PATENT GMBH, priority 2013, dated 2017).

Converted amounts (≈) assume the structure as drawn. Starred links: 1 amine or outer side, 2 acyl side, 3 side chain; linkers in the order of their positions; H or OH if unused. Non-standard residues stand in square brackets, D forms with d. Residues, ends and D or L forms follow the SMILES beside them. *: point of attachment. X1 = N[C@@H](CC(=O)[*:2])[C@H](Cc1ccccc1)N[*:1]; Isovaleryl = CC(C)CC(=O)*

Series [1] deals with carrageenan-induced inflammation of rat knee joint. Kind of series: Investigation of the anti-hyperalgesic effect in animals (carrageenan injected intra-articularly into rat knee joint). Type of series: in vivo. Particulars: intra-articular administration 30 minutes before CAR. As to the method:
In order to induce an inflammation reaction, a carrageenan solution (CAR, 1%, 50 μl) was injected intra-articularly on one side into a rat knee joint. The uninjected side was used for control purposes. Six animals per group were used. The […] was determined by means of a micrometer screw (medial-lateral on the knee joint), and the thermal hyperalgesia was determined by means of a directed infrared light source by the Hargreaves method (Hargreaves et al., 1988) on the sole of the foot. Since the site of inflammation (knee joint) is different from the site of measurement (paw sole), use is made here of the term secondary thermal hyperalgesia, the mechanism of which is of importance for the discovery of effective analge-sics.
Experimental description of thermal hyperalgesia (Hargreaves test): the experimental animal is placed in a plastic chamber on a quartz sheet. Before testing, the experimental animal is firstly given about 5-15 minutes time to familiarise itself with the environment. […] Light reflected by the paw is recorded as long as the experimental animal sits still. Withdrawal of the paw interrupts this reflection, after which the infrared light source is switched off and the time from switching on to switching off is recorded. […]

Another series in a line: Solubility pH7.4. Type of series: physicochemical. As to conditions: pH 7.4, aqueous buffer.
Series [2] relates to bovine cartilage explants. The series is described as follows: GAG-Assay (GAG release from bovine cartilage explants). It counts as cell-based. Particulars: Bos taurus, GAG release into supernatant, unit inferred. As to the method:
The assay is based on bovine cartilage explants from the metacarpal joint (MCP) with a diameter of 4 mm and a thickness of 1-2 mm. Explants are freshly harvested at the day of slaughter. Before the start of the experiment, explants are incubated in DMEM medium+10% serum+30 μg/ml ascorbic acid for 48 h (200 μl). The pre-incubation is performed to enlarge the assay window. Explants are incubated at 37° C. and 7.5% CO2. The number of replicates for all groups is n=4.
Induction of cartilage degradation is induced by treatment of the explants with IL-1 alpha (10 ng/ml) in serum-free medium for 5 days. As negative control, explants are left untreated in serum-free DMEM medium. This control is not part of the baseline calculation but an internal control for the degree of degradation which is strictly dependent on the IL1-alpha quality. IL-1 alpha induces the activity of proteases such as ADAMTS-5 and MMPs which in turn degrade the matrix. Degradation products of the matrix (GAG: glycosaminoglycan) can be measured in the supernatant. The level of GAG release induced by IL1-alpha is defined as the 0% effect level. […] This DRC is the basis for the IC50 calculation.
IL-1 alpha and the ADAMTS-5 inhibitors are incubated for 5 days, then GAG is measured in the supernatant. The explants are digested with papain to determine the amount of GAG in the explants.
In order to investigate the effect of potential cathepsin D inhibitors on cartilage degradation, a pH-induced model based on bovine explants is used. The pH of the medium in which the explants are cultivated is matched here to the pathophysiological pH of an arthritic knee. This pH is pH 5.5. […] The amount of GAGs liberated can be determined quantitatively with the aid of DMMB (dimethylmethylene blue hydrochloride). If sulfated GAGs are detected using dimethylmethylene blue hydrochloride, the decrease in the absorption at 633 nm is utilised. […] In order to determine the concentration, a calibration line is also recorded using chondroitin sulfate. […]

In series [3] the target is T1, human recombinant AdamTS-5 (Homo sapiens, UniProt Q9UNA0).
T1 construct: purchased R&D systems, Wiesbaden, Germany
T1 sequence (Q9UNA0 262-930): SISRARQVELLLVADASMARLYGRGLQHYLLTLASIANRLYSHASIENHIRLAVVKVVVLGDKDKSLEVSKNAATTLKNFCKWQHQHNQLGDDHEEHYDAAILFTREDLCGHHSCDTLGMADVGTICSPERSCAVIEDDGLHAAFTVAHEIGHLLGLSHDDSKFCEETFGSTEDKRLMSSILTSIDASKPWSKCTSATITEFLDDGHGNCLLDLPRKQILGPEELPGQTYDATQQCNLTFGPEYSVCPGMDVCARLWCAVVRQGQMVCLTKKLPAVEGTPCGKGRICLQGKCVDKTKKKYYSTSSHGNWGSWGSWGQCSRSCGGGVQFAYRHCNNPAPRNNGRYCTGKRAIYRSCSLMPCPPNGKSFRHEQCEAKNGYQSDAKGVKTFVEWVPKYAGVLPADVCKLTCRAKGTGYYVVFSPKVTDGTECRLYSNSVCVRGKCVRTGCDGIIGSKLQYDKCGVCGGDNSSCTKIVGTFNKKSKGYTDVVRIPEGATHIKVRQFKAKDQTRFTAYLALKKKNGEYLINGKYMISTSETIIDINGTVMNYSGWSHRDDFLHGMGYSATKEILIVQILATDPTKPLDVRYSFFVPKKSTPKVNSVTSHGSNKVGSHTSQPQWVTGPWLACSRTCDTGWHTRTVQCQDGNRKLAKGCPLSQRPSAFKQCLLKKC
Kind of series: Biochemical activity testing of ADAMTS-5: aggrecan peptide cleavage assay (AlphaScreen). As to conditions: 4.5 nM human recombinant AdamTS-5, biotinylated 43mer aggrecan peptide, 180 min at 37° C.; read-out: IC50 [ADAM-NTS5]M. The protocol: ADAMTS-5 is a metallo protease with glutamyl-endoprotease activity and cleaves aggrecan core protein at E373-A374 in the interglobular domain. To fully analyse the inhibitory potential of compounds on AdamTS-5 activity an Alphascreen® assay with a biotinylated 43mer aggrecan oligopeptide as substrate was performed. Cleavage by ADAMTS-5 caused production of a neoepitop N-terminus ARGS at the C-terminal fragment. The detection of this product is performed with streptavidin-AlphaScreen® donor beads binding to the biotin label and an anti-neoepitop (“ARGSV”) antibody that anchors anti-mouse IgG-coated AlphaLisa® acceptor beads to the other end of the generated fragment. Thereby, donor and acceptor beads get in proximity and a luminescence Alphascreen® signal is generated via the release of singlet oxygen. The cleavage activity was detectable directly by the increase in Alphascreen® signal.
The aggrecan peptide cleavage assay was performed as 384 well AlphaScreen® (Perkin Elmer) assay format in Perkin Elmer 384 AlphaPlate (proxiplate) shallow well microtiter plates and was used for high throughput screen in a total assay volume of 10 μl. 4.5 nM human recombinant AdamTS-5 (R&D systems, Wiesbaden, Germany) and 30 nM biotinylated peptide […]-K(bio) (custom-made, Biosynthan, Berlin, Germany) as substrate were incubated in a total volume of 6 μl (100 mM Tris/HCl, 150 mM NaCl, 10 mM CaCl2, 0.05% Brij®-35, 1% DMSO, 0.084% BSA, pH 7.5) in the absence or presence of the test compound (10 dilution concentrations) for 180 min at 37° C. The reaction was stopped and the first detection step performed by the addition of 2 μl detection solution 1 (48 mM EDTA, 8 nM aggrecan antibody N-term neoepitope ARG, mouse monoclonal BC3 antibody (MDBioproducts, Egg, Switzerland), 100 μg/ml Streptavidin Alphascreen® donor beads (Perkin Elmer, Rodgau, Germany) in 100 mM Tris/HCl, 150 mM NaCl, 0.05% Brij®-35, 0.1% BSA, pH 7.5). After an one-hour incubation at 37° C. 2 μl of the second detection solution (25 μg/ml anti-mouse AlphaLisa® acceptor beads (Perkin Elmer, Rodgau, Germany) in 100 mM Tris/HCl, 150 mM NaCl, 0.05% Brij®-35, 0.1% BSA, pH 7.5 were added. The plates were incubated for […] in the dark.
The AlphaScreen signal was measured with an Envision multimode reader (Perkin Elmer LAS Germany GmbH) with the Alphascreen protocol from Perkin Elmer (laser mode) emission wavelength 570 nm. The full value used was the inhibitor-free reaction. For the zero value a pharmacological reference was used. The inhibitory values (IC50) for the compounds were determined using either the program Symyx Assay Explorer® or Condosseo® from GeneData.
Background: Bead proximity is the source of the signal in Alpha formats.

With `CC[C@H](C)[C@H](NC(=O)C[C@H](N)[C@H](Cc1ccccc1)NC(=O)[C@@H](NC(=O)[C@H](CC(C)C)NC(=O)CC(C)C)C(C)C)C(=O)N[C@H](C(=O)O)C(C)C` [specific DDR2 inhibitor, (S)-2-[(2S,3S)-2-((3S,4S)-3-amino-4-{(S)-3-methyl-2-[(S)-4-methyl-2-(3-methyl-butyrylamino)pentanoylamino]butyrylamino}-5-phenylpentanoylamino)-3-methylpentanoylamino]-3-methylbutyric acid] (Isovaleryl-LV[X1]IV-OH), the “thermal hyperalgesia (Hargreaves test)” value in series [1] (rat, difference in withdrawal times between inflamed and non-inflamed paw) was “able to reduce the extent of thermal hyperalgesia as a function of the dose”.

In “Solubility pH7.4”, `C[C@@H](C[C@H](NC(=O)c1ccc(-c2ccccc2)cc1)C(=O)NC(C)(C)Cc1ccc(F)cc1)C(=O)O` [Compound 5, (2S,4S)-4-[(Biphenyl-4-carbonyl)-amino]-4-[2-(4-fluoro-phenyl)-1,1-dimethyl-ethylcarbamoyl]-2-methyl-butyric acid] yielded a solubility of 0.677 mg/mL (≈ 1380 µM). The figures for the IC50 in series [2] and in series [3] were 1.8 µM and 0.085 µM, respectively.

On to `COC[C@@H](C[C@H](NC(=O)c1ccc(-c2ccccc2)cc1)C(=O)NC(C)(C)Cc1ccc(F)cc1)C(=O)O` [Compound 8], for which, in the series “Solubility pH7.4”, the concentration in solution (solubility) came to 0.838 mg/mL (≈ 1610 µM). Moreover, the IC50 in series [2] is 1.2 µM; in series [3], 0.17 µM.

The compound `CCC[C@@H](C[C@H](NC(=O)c1ccc(-c2ccccc2)cc1)C(=O)NC(C)(C)Cc1ccc(F)cc1)C(=O)O` [Compound 7] gave a solubility in the series “Solubility pH7.4” of 0.157 mg/mL (≈ 303 µM). In addition, the IC50 in series [2] is 1 µM; in series [3], 0.17 µM.

For `C[C@]12C=CC(=O)C=C1CC[C@H]1[C@@H]3C[C@@H](O)[C@](O)(C(=O)CO)[C@@]3(C)C[C@H](O)[C@@]12F` [TAC, Triamcinolone, reference compound], in series [1] (rat knee joint, TAC 10 μg/joint), the CAR-induced swelling entry is reported as “capable of reducing the CAR-induced swelling”.

For orientation: solubility means the dissolved amount per volume that the medium holds. A higher solubility goes with a readily soluble substance. The term IC50 denotes the midpoint of a concentration-inhibition curve.
